Results published in ChEMBL document CHEMBL4257506, “Design, synthesis and antimicrobial activity of usnic acid derivatives” (2018).

How the values were obtained:
Format in all cases: functional
Penicillium cyclopium = assay: Fungicidal activity against Penicillium verrucosum var. cyclopium food isolate by microdilution method
Trichoderma viride = assay: Fungicidal activity against Trichoderma viride IAM 5061 by microdilution method
Aspergillus niger = assay: Fungicidal activity against Aspergillus niger by microdilution method
Penicillium ochrochloron = assay: Fungicidal activity against Penicillium ochrochloron ATCC 9112 by microdilution method
Aspergillus ochraceus = assay: Fungicidal activity against Aspergillus ochraceus by microdilution method
Talaromyces funiculosus = assay: Fungicidal activity against Penicillium funiculosum ATCC 36839 by microdilution method
Aspergillus fumigatus = assay: Fungicidal activity against Aspergillus fumigatus ATCC 1022 by microdilution method
Aspergillus versicolor = assay: Fungicidal activity against Aspergillus versicolor ATCC 11730 by microdilution method

## CC(=O)C1=C(O)C=C2Oc3c(C(C)=O)c(O)c(C)c(O)c3C2(C)C1=O (stereo not given)
Penicillium cyclopium
  MFC: 8.8 ×10⁻² mmol/ml
Trichoderma viride
  MFC: 4.4 ×10⁻² mmol/ml
Aspergillus niger
  MFC: 8.8 ×10⁻² mmol/ml
Penicillium ochrochloron
  MFC: 8.8 ×10⁻² mmol/ml
Aspergillus ochraceus
  MFC: 4.4 ×10⁻² mmol/ml
Talaromyces funiculosus
  MFC: 8.8 ×10⁻² mmol/ml
Aspergillus fumigatus
  MFC: 69.8 ×10⁻² mmol/ml
Aspergillus versicolor
  MFC: 8.8 ×10⁻² mmol/ml

## CC(=O)NCCN/C(C)=C1\C(=O)C=C2Oc3c(C(C)=O)c(O)c(C)c(O)c3[C@@]2(C)C1=O
Penicillium cyclopium
  MFC: 15.05 ×10⁻² mmol/ml
Trichoderma viride
  MFC: 15.05 ×10⁻² mmol/ml
Aspergillus niger
  MFC: 15.05 ×10⁻² mmol/ml
Penicillium ochrochloron
  MFC: 7.53 ×10⁻² mmol/ml
Aspergillus ochraceus
  MFC: 15.05 ×10⁻² mmol/ml
Talaromyces funiculosus
  MFC: 7.53 ×10⁻² mmol/ml
Aspergillus fumigatus
  MFC: 7.53 ×10⁻² mmol/ml
Aspergillus versicolor
  MFC: 7.53 ×10⁻² mmol/ml

## CC(=O)c1c(O)c(C)c(O)c2c1OC1=CC(=O)/C(=C(/C)NCCc3ccc(O)c(O)c3)C(=O)[C@@]12C
Penicillium cyclopium
  MFC: 4.17 ×10⁻² mmol/ml
Trichoderma viride
  MFC: 2.09 ×10⁻² mmol/ml
Aspergillus niger
  MFC: 8.34 ×10⁻² mmol/ml
Penicillium ochrochloron
  MFC: 4.17 ×10⁻² mmol/ml
Aspergillus ochraceus
  MFC: 2.09 ×10⁻² mmol/ml
Talaromyces funiculosus
  MFC: 4.17 ×10⁻² mmol/ml
Aspergillus fumigatus
  MFC: 4.17 ×10⁻² mmol/ml
Aspergillus versicolor
  MFC: 4.17 ×10⁻² mmol/ml

## CC(=O)c1c(O)c(C)c(O)c2c1OC1=CC(=O)/C(=C(/C)NCc3nc(N)n[nH]3)C(=O)[C@@]12C
Penicillium cyclopium
  MFC: 8.82 ×10⁻² mmol/ml
Trichoderma viride
  MFC: 8.82 ×10⁻² mmol/ml
Aspergillus niger
  MFC: 4.41 ×10⁻² mmol/ml
Penicillium ochrochloron
  MFC: 4.41 ×10⁻² mmol/ml
Aspergillus ochraceus
  MFC: 8.82 ×10⁻² mmol/ml
Talaromyces funiculosus
  MFC: 4.41 ×10⁻² mmol/ml
Aspergillus fumigatus
  MFC: 4.41 ×10⁻² mmol/ml
Aspergillus versicolor
  MFC: 4.41 ×10⁻² mmol/ml

## CC(=O)c1c(O)c(C)c(O)c2c1OC1=CC(=O)/C(=C(/C)NCc3noc(C4CCC(=O)N4)n3)C(=O)[C@@]12C (stereo not given in full)
Penicillium cyclopium
  MFC: 3.54 ×10⁻² mmol/ml
Trichoderma viride
  MFC: 1.77 ×10⁻² mmol/ml
Aspergillus niger
  MFC: 3.54 ×10⁻² mmol/ml
Penicillium ochrochloron
  MFC: 1.77 ×10⁻² mmol/ml
Aspergillus ochraceus
  MFC: 3.54 ×10⁻² mmol/ml
Talaromyces funiculosus
  MFC: 1.77 ×10⁻² mmol/ml
Aspergillus fumigatus
  MFC: 3.54 ×10⁻² mmol/ml
Aspergillus versicolor
  MFC: 3.54 ×10⁻² mmol/ml

## CC(=O)c1c(O)c(C)c(O)c2c1OC1=CC(=O)/C(=C(/C)NCCc3nc(C)no3)C(=O)[C@@]12C
Penicillium cyclopium
  MFC: 3.73 ×10⁻² mmol/ml
Trichoderma viride
  MFC: 1.87 ×10⁻² mmol/ml
Aspergillus niger
  MFC: 3.73 ×10⁻² mmol/ml
Penicillium ochrochloron
  MFC: 3.73 ×10⁻² mmol/ml
Aspergillus ochraceus
  MFC: 1.87 ×10⁻² mmol/ml
Talaromyces funiculosus
  MFC: 3.73 ×10⁻² mmol/ml
Aspergillus fumigatus
  MFC: 3.73 ×10⁻² mmol/ml
Aspergillus versicolor
  MFC: 3.73 ×10⁻² mmol/ml

## COc1ccc2nc(NC(=O)CN/C(C)=C3\C(=O)C=C4Oc5c(C(C)=O)c(O)c(C)c(O)c5[C@@]4(C)C3=O)sc2c1
Penicillium cyclopium
  MFC: 14.95 ×10⁻² mmol/ml
Trichoderma viride
  MFC: 1.77 ×10⁻² mmol/ml
Aspergillus niger
  MFC: 14.95 ×10⁻² mmol/ml
Penicillium ochrochloron
  MFC: 14.95 ×10⁻² mmol/ml
Aspergillus ochraceus
  MFC: 14.95 ×10⁻² mmol/ml
Talaromyces funiculosus
  MFC: 14.95 ×10⁻² mmol/ml
Aspergillus fumigatus
  MFC: 14.95 ×10⁻² mmol/ml
Aspergillus versicolor
  MFC: 7.1 ×10⁻² mmol/ml

## CC(=O)c1c(O)c(C)c(O)c2c1OC1=CC(=O)/C(=C(/C)NCC(=O)NC(CO)C(=O)O)C(=O)[C@@]12C (stereo not given in full)
Penicillium cyclopium
  MFC: 3.69 ×10⁻² mmol/ml
Trichoderma viride
  MFC: 1.84 ×10⁻² mmol/ml
Aspergillus niger
  MFC: 3.69 ×10⁻² mmol/ml
Penicillium ochrochloron
  MFC: 3.69 ×10⁻² mmol/ml
Aspergillus ochraceus
  MFC: 3.69 ×10⁻² mmol/ml
Talaromyces funiculosus
  MFC: 3.69 ×10⁻² mmol/ml
Aspergillus fumigatus
  MFC: 3.69 ×10⁻² mmol/ml
Aspergillus versicolor
  MFC: 3.69 ×10⁻² mmol/ml

## CC(=O)c1c(O)c(C)c(O)c2c1OC1=CC(=O)/C(=C(/C)NCCc3nnc(-c4ccccc4O)o3)C(=O)[C@@]12C
Penicillium cyclopium
  MFC: 3.01 ×10⁻² mmol/ml
Trichoderma viride
  MFC: 1.51 ×10⁻² mmol/ml
Aspergillus niger
  MFC: 6.02 ×10⁻² mmol/ml
Penicillium ochrochloron
  MFC: 3.01 ×10⁻² mmol/ml
Aspergillus ochraceus
  MFC: 1.51 ×10⁻² mmol/ml
Talaromyces funiculosus
  MFC: 3.01 ×10⁻² mmol/ml
Aspergillus fumigatus
  MFC: 3.01 ×10⁻² mmol/ml
Aspergillus versicolor
  MFC: 3.01 ×10⁻² mmol/ml

## CC(=O)c1c(O)c(C)c(O)c2c1OC1=CC(=O)/C(=C(/C)NCCn3c(=O)c(O)nc4ccccc43)C(=O)[C@@]12C
Penicillium cyclopium
  MFC: 7.28 ×10⁻² mmol/ml
Trichoderma viride
  MFC: 1.82 ×10⁻² mmol/ml
Aspergillus niger
  MFC: 3.64 ×10⁻² mmol/ml
Penicillium ochrochloron
  MFC: 3.64 ×10⁻² mmol/ml
Aspergillus ochraceus
  MFC: 1.82 ×10⁻² mmol/ml
Talaromyces funiculosus
  MFC: 3.64 ×10⁻² mmol/ml
Aspergillus fumigatus
  MFC: 3.64 ×10⁻² mmol/ml
Aspergillus versicolor
  MFC: 3.64 ×10⁻² mmol/ml

## CC(=O)c1c(O)c(C)c(O)c2c1OC1=CC(=O)/C(=C(/C)NCCS(N)(=O)=O)C(=O)[C@@]12C
Penicillium cyclopium
  MFC: 7.1 ×10⁻² mmol/ml
Trichoderma viride
  MFC: 3.55 ×10⁻² mmol/ml
Aspergillus niger
  MFC: 7.1 ×10⁻² mmol/ml
Penicillium ochrochloron
  MFC: 7.1 ×10⁻² mmol/ml
Aspergillus ochraceus
  MFC: 3.55 ×10⁻² mmol/ml
Talaromyces funiculosus
  MFC: 7.1 ×10⁻² mmol/ml
Aspergillus fumigatus
  MFC: 7.1 ×10⁻² mmol/ml
Aspergillus versicolor
  MFC: 7.1 ×10⁻² mmol/ml

## CC(=O)c1c(O)c(C)c(O)c2c1OC1=CC(=O)/C(=C(/C)NCC(=O)Nc3nccs3)C(=O)[C@@]12C
Penicillium cyclopium
  MFC: 3.72 ×10⁻² mmol/ml
Trichoderma viride
  MFC: 3.72 ×10⁻² mmol/ml
Aspergillus niger
  MFC: 1.86 ×10⁻² mmol/ml
Penicillium ochrochloron
  MFC: 3.72 ×10⁻² mmol/ml
Aspergillus ochraceus
  MFC: 1.86 ×10⁻² mmol/ml
Talaromyces funiculosus
  MFC: 3.72 ×10⁻² mmol/ml
Aspergillus fumigatus
  MFC: 3.72 ×10⁻² mmol/ml
Aspergillus versicolor
  MFC: 3.72 ×10⁻² mmol/ml

## COCCc1noc(CCN/C(C)=C2\C(=O)C=C3Oc4c(C(C)=O)c(O)c(C)c(O)c4[C@@]3(C)C2=O)n1
Penicillium cyclopium
  MFC: 4.02 ×10⁻² mmol/ml
Trichoderma viride
  MFC: 2.01 ×10⁻² mmol/ml
Aspergillus niger
  MFC: 4.02 ×10⁻² mmol/ml
Penicillium ochrochloron
  MFC: 4.02 ×10⁻² mmol/ml
Aspergillus ochraceus
  MFC: 2.01 ×10⁻² mmol/ml
Talaromyces funiculosus
  MFC: 4.02 ×10⁻² mmol/ml
Aspergillus fumigatus
  MFC: 4.02 ×10⁻² mmol/ml
Aspergillus versicolor
  MFC: 4.02 ×10⁻² mmol/ml

## c1ccc(-c2ccc(C(c3ccccc3)n3ccnc3)cc2)cc1 (stereo not given) [BIFONAZOLE]
Penicillium cyclopium
  MFC: 48 ×10⁻² mmol/ml
Trichoderma viride
  MFC: 80 ×10⁻² mmol/ml
Aspergillus niger
  MFC: 64 ×10⁻² mmol/ml
Penicillium ochrochloron
  MFC: 64 ×10⁻² mmol/ml
Aspergillus ochraceus
  MFC: 80 ×10⁻² mmol/ml
Talaromyces funiculosus
  MFC: 80 ×10⁻² mmol/ml
Aspergillus fumigatus
  MFC: 64 ×10⁻² mmol/ml
Aspergillus versicolor
  MFC: 64 ×10⁻² mmol/ml

## CC(=O)N1CCN(c2ccc(OCC3COC(Cn4ccnc4)(c4ccc(Cl)cc4Cl)O3)cc2)CC1 (stereo not given) [KETOCONAZOLE]
Penicillium cyclopium
  MFC: 94 ×10⁻² mmol/ml
Trichoderma viride
  MFC: 570 ×10⁻² mmol/ml
Aspergillus niger
  MFC: 95 ×10⁻² mmol/ml
Penicillium ochrochloron
  MFC: 380 ×10⁻² mmol/ml
Aspergillus ochraceus
  MFC: 95 ×10⁻² mmol/ml
Talaromyces funiculosus
  MFC: 95 ×10⁻² mmol/ml
Aspergillus fumigatus
  MFC: 95 ×10⁻² mmol/ml
Aspergillus versicolor
  MFC: 380 ×10⁻² mmol/ml
